Results as given in patent US9260534B2, “Site-directed PEG-modified exendin-4 analogs and uses thereof” (priority 2010, dated 2016).

Tested on: GLP-1 receptor
Assay: Evaluation of agonistic activity on GLP-1 receptor (CRE-luciferase reporter in HEK293 cells)
Type: cell-based
Conditions: HEK293 cells stably expressing CRE-luciferase reporter system; cellular level
Text: GLP-1 receptor is a Gs-coupled GPCR. CRE-luciferase reporter system was stably expressed in human embryonic kidney epithelial cell line HEK293 used for evaluation. Therefore, once the receptor was activated, the enhancement of intracellular concentration of the second messenger cAMP through Gs signal pathway would initiate the expression of the luciferase gene in the reporter system. The ability of the test compounds to stimulate and activate GLP-1 receptor was reflected by the detected expression level of the luciferase reporter gene.

[Cys^21(mPEG5000-MAL)]Exendin-4 [Compound 1]
EC50: 22.5 nM
